Legend:
[1] = test system: human ovarian cancer (SK-OV-3); assay: Growth inhibition, SRB assay, SK-OV-3; assay type: cell-based; settings: 72 hours, three independent experiments, read-out: Growth inhibition of cancer cell: GI50, SK-OV-3
Experimental: (§1) T-type calcium channel blocking effects of the compounds of the present invention were tested according to an electrophysiological whole-cell patch-clamp method, which uses mammalian HEK293 cell line selectively expressing α1G among T-type calcium channel encoding genes, wherein the α1G is mainly expressed at nerve cells (derived from […]), as described in Korean Patent No. 0610731 and Monteil, A., et al., J. Biol. Chem. 2000, 275, 6090-6100. Also, cytotoxicities of the compounds according to the present invention were tested according to a 3-(4,5-dimethylthiazol-2-yl)-2,5-diphenyltetrazolium bromide (MTT) assay. Further, growth inhibition effects against cancer cell lines of the compounds according to the present invention were tested according to a sulforhodamine B (SRB) assay, as disclosed in Skehan, P. et al., J. Natl Cancer Inst. 1990, 82, 1107-1112.
(§2) Experiment 3: Analysis for Growth Inhibition Against Cancer Cell Lines Using SRB Assay
(§3) The compounds according to the present invention were evaluated for their growth inhibition against five cancer cell lines, including human lung carcinoma (A-549), human prostate cancer (DU 145), human colon cancer (HT-29), human malignant melanoma (SK-MEL-2) and human ovarian cancer (SK-OV-3) using sulforhodamine B (SRB) assay. All cell lines were grown in RPMI 1640 (Gibco BRL) supplemented with 10% (v/v) heat-inactivated fetal bovine serum (FBS) and maintained at 37° C. in a humidified atmosphere with 5% CO2. The cells were seeded into 96-well plate. Various concentrations of compounds were added to each well in triplicate and then incubated at 37° C. with 5% CO2 for 72 hours such that cells are in the exponential phase of growth at the time of drug addition. After incubation, 100 μL of formalin solution was gently added to the wells. Microplates were left for 30 min at room temperature and washed five times with tap water. One hundred microliters of 0.4% SRB solution was added to each well and left at room temperature for 30 min. SRB was removed and the plates were washed five times with 1% acetic acid before air-drying. Bound SRB was solubilized with 100 μL of 10 mM unbuffered Tris-base solution (Sigma) and plates were left on a plate shaker for at least 10 min. The optical density was measured using a microplate reader (Versamax, Molecular Devices) with a 520 nm wavelength and the growth inhibition concentration was expressed as GI50.

[2] = test system: human colon cancer (HT-29); assay: Growth inhibition, SRB assay, HT-29; assay type: cell-based; settings: for GI50: Homo sapiens, HT-29, SRB assay, 72 hours, three independent experiments, read-out: Growth inhibition of cancer cell: GI50, HT-29
Experimental: as §1, §2, §3

[3] = test system: human prostate cancer (DU 145); assay: Growth inhibition, SRB assay, DU 145; assay type: cell-based; settings: 72 hours, three independent experiments, read-out: Growth inhibition of cancer cell: GI50, DU 145
Experimental: as §1, §2, §3

[4] = test system: human malignant melanoma (SK-MEL-2); assay: Growth inhibition, SRB assay, SK-MEL-2; assay type: cell-based; settings: 72 hours, three independent experiments, read-out: Growth inhibition of cancer cell: GI50, SK-MEL-2
Experimental: as §1, §2, §3

[5] = test system: human lung carcinoma (A-549); assay: Growth inhibition, SRB assay, A-549; assay type: cell-based; settings: A549, 72 hours, three independent experiments, read-out: Growth inhibition of cancer cell: GI50, A-549
Experimental: as §1, §2, §3

[6] = molecular target: T1, T-type calcium channel (α1G) (Homo sapiens, UniProt O43497); assay: T-type calcium channel blocking, electrophysiological whole-cell patch-clamp in HEK293 cells expressing α1G; assay type: cell-based; settings: dose-response curve, three independent experiments, read-out: Channel blocking effect (IC50) T-type (α1G)
T1 construct: expressed in transfected cells
T1 sequence (O43497 whole entry): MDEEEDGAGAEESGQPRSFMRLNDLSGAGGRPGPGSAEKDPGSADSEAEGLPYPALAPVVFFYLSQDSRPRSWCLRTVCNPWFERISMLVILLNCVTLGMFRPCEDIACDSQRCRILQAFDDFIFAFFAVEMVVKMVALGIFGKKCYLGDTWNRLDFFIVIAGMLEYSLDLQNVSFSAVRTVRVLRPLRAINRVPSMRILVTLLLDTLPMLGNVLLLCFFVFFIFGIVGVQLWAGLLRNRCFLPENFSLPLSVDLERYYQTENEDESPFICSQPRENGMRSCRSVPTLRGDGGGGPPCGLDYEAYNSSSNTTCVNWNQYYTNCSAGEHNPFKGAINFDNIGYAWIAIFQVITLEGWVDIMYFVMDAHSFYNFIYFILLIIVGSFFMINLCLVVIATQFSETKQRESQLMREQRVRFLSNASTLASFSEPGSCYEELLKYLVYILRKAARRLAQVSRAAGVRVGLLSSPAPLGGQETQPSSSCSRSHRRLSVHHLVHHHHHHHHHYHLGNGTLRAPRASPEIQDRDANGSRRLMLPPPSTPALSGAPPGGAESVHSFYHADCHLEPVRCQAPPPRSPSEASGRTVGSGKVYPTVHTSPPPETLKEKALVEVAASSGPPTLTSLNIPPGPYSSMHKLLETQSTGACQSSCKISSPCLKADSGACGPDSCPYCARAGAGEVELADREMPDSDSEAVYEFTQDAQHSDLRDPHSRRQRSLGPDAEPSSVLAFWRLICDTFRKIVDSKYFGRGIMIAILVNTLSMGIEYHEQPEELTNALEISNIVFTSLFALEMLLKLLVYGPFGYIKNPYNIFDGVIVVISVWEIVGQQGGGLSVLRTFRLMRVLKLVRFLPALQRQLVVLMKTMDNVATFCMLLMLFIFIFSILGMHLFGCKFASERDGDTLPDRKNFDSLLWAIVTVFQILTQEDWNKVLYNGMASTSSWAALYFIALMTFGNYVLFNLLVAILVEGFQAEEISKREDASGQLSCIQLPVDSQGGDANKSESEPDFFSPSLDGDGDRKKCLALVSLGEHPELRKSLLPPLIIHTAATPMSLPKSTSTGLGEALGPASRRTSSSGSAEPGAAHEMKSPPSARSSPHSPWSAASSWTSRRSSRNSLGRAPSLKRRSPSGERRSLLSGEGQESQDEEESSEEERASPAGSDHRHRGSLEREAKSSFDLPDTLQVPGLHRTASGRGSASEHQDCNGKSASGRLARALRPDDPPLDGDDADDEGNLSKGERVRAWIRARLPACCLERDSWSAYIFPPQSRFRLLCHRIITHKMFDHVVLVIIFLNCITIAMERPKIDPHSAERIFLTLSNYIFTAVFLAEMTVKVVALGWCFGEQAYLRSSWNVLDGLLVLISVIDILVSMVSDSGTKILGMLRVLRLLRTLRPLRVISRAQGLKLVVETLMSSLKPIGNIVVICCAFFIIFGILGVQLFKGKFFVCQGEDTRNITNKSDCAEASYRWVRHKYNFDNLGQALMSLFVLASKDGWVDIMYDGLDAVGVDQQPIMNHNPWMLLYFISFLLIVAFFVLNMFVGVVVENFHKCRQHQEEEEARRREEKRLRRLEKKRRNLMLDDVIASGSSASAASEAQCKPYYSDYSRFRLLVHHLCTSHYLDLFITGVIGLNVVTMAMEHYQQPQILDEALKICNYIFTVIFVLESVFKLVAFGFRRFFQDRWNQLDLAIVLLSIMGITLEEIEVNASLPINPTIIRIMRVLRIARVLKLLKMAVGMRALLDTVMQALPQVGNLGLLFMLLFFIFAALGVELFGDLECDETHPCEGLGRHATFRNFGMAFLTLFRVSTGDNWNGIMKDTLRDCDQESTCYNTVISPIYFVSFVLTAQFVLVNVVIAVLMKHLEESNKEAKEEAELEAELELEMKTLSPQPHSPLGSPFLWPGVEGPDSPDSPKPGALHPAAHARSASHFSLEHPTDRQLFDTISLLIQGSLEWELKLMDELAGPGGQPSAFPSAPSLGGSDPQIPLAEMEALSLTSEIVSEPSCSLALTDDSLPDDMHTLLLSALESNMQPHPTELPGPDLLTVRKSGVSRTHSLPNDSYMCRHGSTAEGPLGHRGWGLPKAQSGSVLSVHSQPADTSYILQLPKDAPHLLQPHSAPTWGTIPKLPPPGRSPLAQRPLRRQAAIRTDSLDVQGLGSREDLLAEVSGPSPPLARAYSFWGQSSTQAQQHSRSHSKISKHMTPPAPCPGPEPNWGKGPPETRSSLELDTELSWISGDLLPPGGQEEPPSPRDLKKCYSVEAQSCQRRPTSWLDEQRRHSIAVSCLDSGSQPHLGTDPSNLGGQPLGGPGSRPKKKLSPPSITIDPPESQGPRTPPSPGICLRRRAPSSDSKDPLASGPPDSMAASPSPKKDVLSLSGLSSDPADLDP
Experimental: as §1
Experiment 1: Methods for Culturing HEK293 cells and measuring T-type Calcium Channel Activity Using an Electrophysiological Method
HEK293 cells were cultured in Dulbecco's modified Eagle's medium (DMEM) supplemented with 10% fetal bovine serum (FBS) and 1% penicillin/streptomycin (v/v) in 36.5° C. humidified incubator (95% air-5% CO2). […] The cells used for T-type calcium channel activity assay were cultured on a cover slip coated with poly-L-lysine (0.5 mg/mL) whenever sub-cultured, and their calcium channel activity was recorded 2 to 7 days after the cultivation. Current of the T-type calcium channel at a single cell level was measured according to an electrophysiological whole-cell patch-clamp method using EPC-9 amplifier (HEKA, Germany). […] Inward current caused by the T-type calcium channel activation which occurred when the cells were converted into a whole-cell recording mode by stabbing a microglass electrode having 3-4 MΩ resistance which was filled with the cell interior solution into a single cell and de-polarized at −30 mV (50 ms duration period) every 10 s with fixing membrane potential to −100 mV was measured according to a T-type calcium channel protocol activated at low current.

five cancer cell lines = assay: Growth inhibition, SRB assay, five cancer cell lines overall; assay type: cell-based, human
Experimental: as §2
as §3, with “One hundred microliters of 0.4% SRB solution was added to each well and left at room temperature for 30 min. SRB was removed and the plates were washed five times with 1% acetic acid before air-drying. Bound SRB was solubilized with 100 μL of 10 mM unbuffered Tris-base solution (Sigma) and plates were left on a plate shaker for at least 10 min.” left out
The biological activities of doxorubicin and KYS05042 disclosed in Korean Patent No. 0610731 were evaluated as references, and the results are indicated in Table 2.

GI50 [1] | GI50 [2] | GI50 [3] | GI50 [4] | GI50 [5] | IC50 [6] | SMILES | Times stronger activity against human colon cancer cell line compared to KYS05042 ([2]; human colon cancer cell line, compared to KYS05042) | Times stronger activity against human colon cancer cell line compared to doxorubicin ([2]; human colon cancer cell line, compared to doxorubicin) | Times stronger growth inhibition compared to KYS05042 (five cancer cell lines; compared to KYS05042) | Growth inhibition compared to doxorubicin (five cancer cell lines; compared to doxorubicin)
120 ± 20 nM | 210 ± 40 nM | 60 ± 10 nM | 110 ± 10 nM | 160 ± 10 nM |  | COc1cccc2c1C(=O)c1c(O)c3c(c(O)c1C2=O)C[C@@](O)(C(=O)CO)C[C@@H]3O[C@H]1C[C@H](N)[C@H](O)[C@H](C)O1 [Doxorubicin, doxorubicin, reference compound] |  |  |  | 
2760 ± 760 nM | 610 ± 120 nM | 2490 ± 530 nM | 690 ± 150 nM | 870 ± 180 nM | 260 ± 10 nM | CN(CCCCCN1CCCC1)C1=Nc2ccccc2C(CC(=O)NCc2ccccc2)N1c1ccc(-c2ccccc2)cc1 (stereo not drawn) [KYS05080] |  |  |  | 
1950 ± 40 nM | 520 ± 240 nM | 1780 ± 170 nM | 1910 ± 110 nM | 1770 ± 160 nM | 230 ± 30 nM | COC(=O)CC1c2ccccc2N=C(N(C)CCCCCN(C)C)N1c1ccc(-c2ccccc2)cc1 (stereo not drawn) [KYS05089, 2-[N-(5-N′,N′-Dimethylaminopentyl)-N-Methylamino]-3-(4-Biphenylyl)-4-Methoxycarbonylmethyl-3,4-Dihydroquinazoline] |  |  |  | 
660 ± 130 nM | 40 ± 10 nM | 190 ± 20 nM | 480 ± 130 nM | 170 ± 20 nM | 41 ± 1 nM | CN(C)CCCCCN(C)C1=Nc2ccccc2C(CC(=O)NCc2ccccc2)N1c1ccc(-c2ccccc2)cc1 (stereo not drawn) [KYS05090, 4-(N-Benzylacetamino)-3-(4-Biphenylyl)-2-[N-(5-N′,N′-Dimethylaminopentyl)-N-Methylamino]-3,4-Dihydroquinazoline] | about 40 times | about 5 times | about 10 times | nearly equipotent growth inhibition

— patent US8168646B2, “3,4-dihydroquinazoline derivatives” (Dongwoo Syntech Co., Ltd., priority 2007, dated 2012)
